ChEMBL document CHEMBL1130224, “5-(N-oxyaza)-7-substituted-1,4-dihydroquinoxaline-2,3-diones: novel, systemically active and broad spectrum antagonists for NMDA/glycine, AMPA, and kainate receptors” (J Med Chem, 1997)

Columns and labels:
[1] = biological target: T1, Glutamate receptor ionotropic, AMPA (Rattus norvegicus, UniProt P19490+P19491+P19492+P19493)
Description: Binding affinity in rat brain cortical membranes by the displacement of [3H]AMPA at Ionotropic glutamate receptor AMPA

[2] = biological target: Glutamate receptor ionotropic, kainate; test: Displacement of [3H]kainate from rat brain cortical membrane Ionotropic glutamate receptor kainate
[3] = biological target: T2, Glutamate receptor ionotropic, NMDA 1 (Rattus norvegicus, UniProt P35439); test: Binding affinity in rat brain cortical membranes by the displacement of [3H]- DCKA at N-methyl-D-aspartate glutamate receptor 1; assay type: cell membranes
[4] = Partition coefficient determined using octanol versus pH 7.4 buffer; assay type: physicochemical; details: octanol/pH 7.4 buffer
[5] = species on record: Mus musculus; test: Anticonvulsant activity tested in mouse; assay type: functional
[6] = biological target: Glutamate receptor ionotropic, AMPA (Rattus norvegicus) (UniProt P19491+P19492+P19493+P19490); test: Inhibition of Ionotropic glutamate receptor AMPA was measured in oocytes expressing rat cerebral cortex poly (A)+ RNA; assay type: functional, cell-based; details: Oocyte
[7] = biological target: Glutamate receptor ionotropic, NMDA 1 (Rattus norvegicus) (UniProt P35439); test: Inhibition of N-methyl-D-aspartate glutamate receptor 1 was measured in oocytes expressing the cloned rat NMDA receptor subunit combination NR1A/2C; assay type: functional, cell-based; details: Oocyte
[8] = biological target: Glutamate NMDA receptor; test: Displacement of [3H]DCKA at N-methyl-D-aspartate glutamate receptor 1; assay type: protein-complex assay, Rattus norvegicus
[9] = system: Mus musculus; test: Antinociceptive activity in mouse tail flick test, when administered intrathecally; assay type: functional
[10] = system: Rattus norvegicus; test: Reduction in cortical infarct volume when 20 mg/kg administarted Iv bolus followed by 14 mg/kg /h IV infusion for 22 hr in rat peramanent middle cerebral artery (MCA); assay type: functional
[11] = The steady state selectivity index for inhibition of NMDA/glycine receptors was estimated by dividing Kb (AMPA) by Kb (NMDA/glycine)
[12] = biological target: Glutamate receptor ionotropic, NMDA 1 (Rattus norvegicus) (UniProt P35439); test: Inhibition of NMDA/glycine receptors was measured in oocytes expressing the cloned rat NMDA receptor subunit combination NR1A/2C; assay type: functional, cell-based; details: Oocyte
[13] = species on record: Mus musculus; test: Mouse maximum electroshock induced test seizure test in mice; assay type: functional
[14] = system: Mus musculus; test: Antinociceptive activity of tail flick test in mice, when administarted intrathecally; assay type: functional
[15] = biological target: T1, Glutamate receptor ionotropic, AMPA; test: Inhibition of binding of [3H]AMPA to Ionotropic glutamate receptor AMPA in rat brain membrane; assay type: cell membranes
[16] = biological target: T2, Glutamate receptor ionotropic, NMDA 1; test: Inhibition of binding of [3H]DCKA to N-methyl-D-aspartate glutamate receptor 1 in rat brain membrane; assay type: cell membranes

O=c1[nH]c2ccc(Cl)cc2[nH]c1=O
IC50 [1]: 52 µM
IC50 [2]: 52 µM

Cc1cc2[nH]c(=O)c(=O)[nH]c2[n+]([O-])c1
IC50 [3]: 5900 nM
logD [4]: -2.91
IC50 [1]: 14 µM
ED50 [5]: 0.97 mg/kg
IC50 [2]: 11.9 µM

O=C1Nc2cc(Cl)ccc2CC1[N+](=O)[O-] (configuration not stated)
Kb [6]: 9.2 µM
Kb [7]: 6.7 µM

Cc1cnc2nc(O)c(O)nc2c1
IC50 [1]: 67 µM
IC50 [2]: 49 µM
IC50 [8]: 41000 nM

O=c1[nH]c2cc(Cl)c(Cl)c([N+](=O)[O-])c2[nH]c1=O [LICOSTINEL]
logD [4]: 0.21
IC50 [1]: 1.5 µM
ED50 [5]: 4 mg/kg
IC50 [8]: 5.9 nM

Oc1nc2cc(Br)cnc2nc1O
IC50 [1]: 32 µM
IC50 [2]: 16 µM
IC50 [8]: 4100 nM

O=c1[nH]c2cc([N+](=O)[O-])c[n+]([O-])c2[nH]c1=O
IC50 [3]: 690 nM
logD [4]: -3.31
ED50 [9]: 2.6 ug mouse-1
IC50 [1]: 1.3 µM
ED50 [5]: 4.6 mg/kg
IC50 [2]: 2.4 µM

[O-][n+]1cc(Cl)cc2nc(O)c(O)nc21
Kb [6]: 3.9 µM
logD [4]: -2.66
Reduction [10]: 67%
Selectivity index [11]: 6.2
IC50 [1]: 9.9 µM
Kb [12]: 630 nM
ED50 [5]: 0.82 mg/kg
IC50 [2]: 5.3 µM
IC50 [8]: 820 nM

O=[N+]([O-])c1cnc2nc(O)c(O)nc2c1
Kb [6]: 1.4 µM
logD [4]: -0.97
IC50 [1]: 3.3 µM
Kb [7]: 0.43 µM
ED50 [5]: 4.5 mg/kg
IC50 [2]: 4.4 µM
IC50 [8]: 1100 nM

O=c1[nH]c2cc(C(F)(F)F)c[n+]([O-])c2[nH]c1=O
IC50 [3]: 1050 nM
logD [4]: -2.35
IC50 [1]: 5.9 µM
ED50 [5]: 6.3 mg/kg
IC50 [2]: 7.5 µM

Oc1nc2cc(C(F)(F)F)cnc2nc1O
IC50 [1]: 18 µM
IC50 [2]: 16 µM
IC50 [8]: 1900 nM

O=[N+]([O-])c1ccc2nc(O)c(O)nc2c1
IC50 [1]: 7.7 µM
IC50 [2]: 15 µM
IC50 [8]: 3800 nM

CN1CCc2c([N+](=O)[O-])cc3[nH]c(=O)c(=O)[nH]c3c2C1
IC50 [2]: 0.36 µM
ED50 [13]: 0.44 mg/kg
IC50 [8]: 370 nM

[O-][n+]1cc(Br)cc2nc(O)c(O)nc21
IC50 [3]: 1000 nM
logD [4]: -2.48
IC50 [1]: 6.7 µM
ED50 [5]: 0.87 mg/kg
IC50 [2]: 3.4 µM

NS(=O)(=O)c1cccc2c1c([N+](=O)[O-])cc1nc(O)c(O)nc12 [NBQX]
ED50 [14]: 1.6 ug mouse-1
ED50 [13]: 13.1 mg/kg

Oc1nc2cc(Cl)cnc2nc1O
IC50 [1]: 38 µM
IC50 [2]: 22 µM
IC50 [8]: 2200 nM

O=[N+]([O-])c1ccc2cc(NS(=O)(=O)C(F)(F)F)c(O)nc2c1
IC50 [15]: 630 nM
IC50 [16]: 620 nM
